# Assay results published in patent US10751339B2, “Substituted aminopyrimidine compounds and methods of use” (SUNSHINE LAKE PHARMA CO., LTD., priority 2018, dated 2020).
# Columns and labels:
# PI3K (p110α/p85α) (h) = PI3K (p110α/p85α) (h) (Homo sapiens (Human), UniProt P42336); assay: PI3K (p110α/p85α) (h) non-radioactive HTRF kinase assay; assay type: biochemical
# Method: (§1) PI3K (p110α/p85α) (h) is incubated in assay buffer containing 10 μM phosphatidylinositol 4,5-bisphosphate and MgATP (concentration as required). The reaction is initiated by the addition of the ATP solution. After incubation for 30 minutes at room temperature, the reaction is stopped by the addition of stop solution containing EDTA and biotinylated phosphatidylinositol-3,4,5-trisphosphate. Finally, detection buffer is added, which contains europium-labelled anti-GST monoclonal antibody, GST-tagged GRP1 PH domain and streptavidin allophycocyanin. The plate is then read in timeresolved fluorescence mode and the homogenous time-resolved fluorescence (HTRF) signal is determined according to the formula HTRF=10000×(Em665 nm/Em620 nm).
# (§2) The kinase assays described herein were performed at Millipore UK Ltd, Dundee Technology Park, Dundee DD2 1SW, UK.
# [1] = Compound stability in human liver microsomes; assay type: in vitro ADME; details: pH 7.4
# Summary of the method: (§3)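 Compounds (5 μM, 0.05% DMSO) incubated in duplicate with liver microsomes (0.5 mg protein/mL) and 1.0 mM NADPH in 100 mM phosphate buffer pH 7.4 at 37 °C, sampled 0–60 min. Remaining compound measured by LC/MS/MS, expressed as percent of zero-time control; denatured-microsome and dextromethorphan controls included.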
# KARPAS-422 = assay: Cell proliferation assay (CTG), KARPAS-422; assay type: cell-based; details: Homo sapiens, 72 h
# Method: (§4) • 1. Harvest cells during the logarithmic growth period and count cell number using Count-star. • 2. Adjust cell concentrations to […] with respective culture medium. • 3. Add 90 μL cell suspensions to 96-well plates with the final cell density of 1×10^4 cells/well. (cell concentration will be adjusted according to the data base or density optimization assay.) • 4. The next day, prepare 10× solution (Top working concentration: 10 μM of test article in media with 3.16-fold serial dilutions to achieve 9 dose levels). • 5. Dispense 10 μL drug solution of both test article and reference control in each well (duplicate for each drug concentration) of the plate.
# PI3K-α (SKOV3) = assay: p-AKT HTRF assay, PI3K-α in SKOV3 cells; assay type: cell-based; details: Homo sapiens, SK-OV-3
# Method: Cells were incubated at 37° C. in a 5% CO2 atmosphere overnight. […] Medium was then aspirated and 50 μL/well of lysis buffer was added. Plates were shaked for 45 minutes at room temperature and then 16 ul/well of lysate was transferred to 384-well plate. 4 ul/well of premixed antibody was added to the wells. The plate was centrifuged at 1000 rpm at RT for 1 minute and then incubated for 4 hours at 22° C., and Phospho-AKT (ser473) Kit was used for detection.
# [2] = Compound stability in rat liver microsomes; assay type: in vitro ADME; details: pH 7.4
# Summary of the method: as §3
# SU-DHL-10 = assay: Cell proliferation assay (CTG), SU-DHL-10; assay type: cell-based; details: Homo sapiens, SU-DHL10, 72 h
# Method: as §4
# PI3K (p110δ/p85α) (h) = PI3K (p110δ/p85α) (h) (Homo sapiens (Human), UniProt O00329); assay: PI3K (p110δ/p85α) (h) non-radioactive HTRF kinase assay; assay type: biochemical
# Method: as §1, with “(p110δ/p85α)” for “(p110α/p85α)”, “phosphatidylinositol-4, 5-bisphosphate” for “phosphatidylinositol 4,5-bisphosphate”, “MgATP mix.” for “ATP solution.”, “streptavidin-allophycocyanin.” for “streptavidin allophycocyanin.”
# as §2
# PI3K (p110α/p85α) (h), sequence (P42336 whole entry, the tested form may be a part): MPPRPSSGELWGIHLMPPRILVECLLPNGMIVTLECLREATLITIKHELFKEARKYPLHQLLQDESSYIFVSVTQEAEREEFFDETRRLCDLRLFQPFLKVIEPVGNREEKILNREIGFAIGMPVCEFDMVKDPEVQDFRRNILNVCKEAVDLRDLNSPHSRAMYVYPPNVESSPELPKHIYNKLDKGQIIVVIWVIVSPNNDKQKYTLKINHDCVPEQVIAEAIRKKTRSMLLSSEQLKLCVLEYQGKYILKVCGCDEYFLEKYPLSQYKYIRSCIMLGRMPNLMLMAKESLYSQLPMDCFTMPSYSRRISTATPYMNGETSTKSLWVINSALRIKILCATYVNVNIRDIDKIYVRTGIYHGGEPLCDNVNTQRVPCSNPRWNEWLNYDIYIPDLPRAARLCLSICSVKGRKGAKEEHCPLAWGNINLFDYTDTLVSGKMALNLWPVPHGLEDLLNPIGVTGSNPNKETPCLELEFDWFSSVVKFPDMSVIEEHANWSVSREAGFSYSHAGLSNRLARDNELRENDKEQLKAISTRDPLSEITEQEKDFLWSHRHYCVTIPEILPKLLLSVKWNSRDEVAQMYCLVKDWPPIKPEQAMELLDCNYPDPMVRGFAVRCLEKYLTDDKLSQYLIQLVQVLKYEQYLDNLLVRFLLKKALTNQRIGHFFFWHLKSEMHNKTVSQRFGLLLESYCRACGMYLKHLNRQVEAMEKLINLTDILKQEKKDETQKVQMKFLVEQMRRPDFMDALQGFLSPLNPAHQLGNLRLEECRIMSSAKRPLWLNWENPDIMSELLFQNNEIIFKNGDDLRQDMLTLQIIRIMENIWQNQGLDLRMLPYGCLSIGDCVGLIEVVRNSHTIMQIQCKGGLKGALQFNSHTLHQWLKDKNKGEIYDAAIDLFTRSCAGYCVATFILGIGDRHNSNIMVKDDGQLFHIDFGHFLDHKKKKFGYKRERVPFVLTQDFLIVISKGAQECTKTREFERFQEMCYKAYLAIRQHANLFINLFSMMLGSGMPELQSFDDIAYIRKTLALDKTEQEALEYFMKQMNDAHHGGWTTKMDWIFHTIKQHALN
# PI3K (p110α/p85α) (h), sequence (P27986 whole entry partner, the tested form may be a part): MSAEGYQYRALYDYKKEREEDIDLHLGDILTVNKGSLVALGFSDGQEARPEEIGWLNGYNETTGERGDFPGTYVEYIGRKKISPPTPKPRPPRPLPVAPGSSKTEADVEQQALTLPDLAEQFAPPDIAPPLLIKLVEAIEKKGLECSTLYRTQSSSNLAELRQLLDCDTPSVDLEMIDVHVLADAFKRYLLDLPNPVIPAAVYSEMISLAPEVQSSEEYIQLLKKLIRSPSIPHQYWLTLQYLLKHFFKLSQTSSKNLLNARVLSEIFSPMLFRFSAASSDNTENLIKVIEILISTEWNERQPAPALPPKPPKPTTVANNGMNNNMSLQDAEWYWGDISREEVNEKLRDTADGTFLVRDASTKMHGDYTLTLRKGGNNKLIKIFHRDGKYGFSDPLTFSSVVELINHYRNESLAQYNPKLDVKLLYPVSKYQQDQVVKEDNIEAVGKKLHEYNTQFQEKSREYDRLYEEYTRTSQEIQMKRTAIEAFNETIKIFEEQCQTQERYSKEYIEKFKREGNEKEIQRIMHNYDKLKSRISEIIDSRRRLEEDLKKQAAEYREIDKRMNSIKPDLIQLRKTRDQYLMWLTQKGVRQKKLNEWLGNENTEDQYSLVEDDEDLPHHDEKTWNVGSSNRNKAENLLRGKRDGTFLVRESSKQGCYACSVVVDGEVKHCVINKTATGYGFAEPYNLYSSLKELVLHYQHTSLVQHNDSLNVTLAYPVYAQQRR
# PI3K (p110δ/p85α) (h), sequence (O00329 whole entry): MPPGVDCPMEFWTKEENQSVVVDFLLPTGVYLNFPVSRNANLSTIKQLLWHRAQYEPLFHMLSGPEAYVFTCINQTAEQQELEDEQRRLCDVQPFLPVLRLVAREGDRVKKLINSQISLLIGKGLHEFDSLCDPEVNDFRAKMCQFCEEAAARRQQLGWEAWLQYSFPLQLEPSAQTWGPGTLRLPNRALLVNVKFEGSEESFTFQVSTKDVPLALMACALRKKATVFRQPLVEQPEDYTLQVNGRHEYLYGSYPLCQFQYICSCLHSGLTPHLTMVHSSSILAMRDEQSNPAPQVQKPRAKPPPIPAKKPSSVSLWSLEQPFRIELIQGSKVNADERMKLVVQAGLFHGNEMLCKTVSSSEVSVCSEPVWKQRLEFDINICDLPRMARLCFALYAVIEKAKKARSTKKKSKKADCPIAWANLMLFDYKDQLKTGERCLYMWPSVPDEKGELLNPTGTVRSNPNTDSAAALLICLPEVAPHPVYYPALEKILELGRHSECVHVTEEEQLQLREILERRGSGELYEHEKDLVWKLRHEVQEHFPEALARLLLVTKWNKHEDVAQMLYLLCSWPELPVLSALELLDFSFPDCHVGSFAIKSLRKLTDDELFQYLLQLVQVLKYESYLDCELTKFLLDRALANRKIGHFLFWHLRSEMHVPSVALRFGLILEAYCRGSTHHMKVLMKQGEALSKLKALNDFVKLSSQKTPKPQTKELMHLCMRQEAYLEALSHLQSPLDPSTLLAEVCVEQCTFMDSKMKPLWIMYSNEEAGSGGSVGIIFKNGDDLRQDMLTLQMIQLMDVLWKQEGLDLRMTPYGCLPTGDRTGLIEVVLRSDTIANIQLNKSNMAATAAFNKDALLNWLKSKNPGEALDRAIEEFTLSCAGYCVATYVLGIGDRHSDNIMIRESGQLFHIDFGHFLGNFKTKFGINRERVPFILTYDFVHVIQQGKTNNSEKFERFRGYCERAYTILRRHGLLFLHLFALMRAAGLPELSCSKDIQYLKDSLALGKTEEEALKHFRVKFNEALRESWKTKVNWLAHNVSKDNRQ
# PI3K (p110δ/p85α) (h), sequence (P27986 whole entry partner): as the sequence (P27986 whole entry partner, the tested form may be a part) above
smiles,measurement,setting,value
"Cc1noc(-c2c(N)ncnc2N[C@@H](C)c2nc3cccc(C#CCO)c3c(=O)n2-c2ccccc2)n1 [Example 34, (S)-2-(1-((6-amino-5-(3-methyl-1,2,4-oxadiazol-5-yl)pyrimidin-4-yl)amino)ethyl)-5-(3-hydroxyprop-1-yn-1-yl)-3-phenylquinazolin-4(3H)-one]",IC50,PI3K (p110α/p85α) (h),770 nM
same,CLint scaled at 5 μM,"[1]; liver microsomes, in vivo CLint extrapolated from human liver microsome incubation",36.9 mL/min/kg
same,half-life at 5 μM,"[1]; human liver microsomes 0.5 mg protein/mL, compound 5 μM, NADPH, 37° C., read-out: Human T1/2",0.786 h
same,IC50,KARPAS-422,310 nM
same,IC50,PI3K-α (SKOV3),2600 nM
same,CLint scaled at 5 μM,"[2]; liver microsomes, in vivo CLint extrapolated from rat liver microsome incubation",31 mL/min/kg
same,half-life at 5 μM,"[2]; rat liver microsomes 0.5 mg protein/mL, compound 5 μM, NADPH, 37° C., read-out: Rat T1/2",1.34 h
same,IC50,SU-DHL-10,300 nM
same,IC50,PI3K (p110δ/p85α) (h),4 nM
